Data: the kinase profiling compilation of Christmann-Franck et al. (2016)

Tests used:
Assay in all cases: radiometric filter-binding kinase assay, Kinase HotSpot
Settings in all cases: compound 0.5 µM; ATP 10 µM
BRSK2 (human) = BRSK2 (human) (UniProt Q8IWQ3)
ACVR1 (human) = ACVR1 (human) (UniProt Q04771)
STK33 (human) = STK33 (human) (UniProt Q9BYT3)
FLT3 (human) = FLT3 (human) (UniProt P36888)
GRK5 (human) = GRK5 (human) (UniProt P34947)
PLK2 (human) = PLK2 (human) (UniProt Q9NYY3)
EPHA3 (human) = EPHA3 (human) (UniProt P29320)
BMX (human) = BMX (human) (UniProt P51813)
EPHA2 (human) = EPHA2 (human) (UniProt P29317)
BLK (human) = BLK (human) (UniProt P51451)
FLT1 (human) = FLT1 (human) (UniProt P17948)
DSTYK (human) = DSTYK (human) (UniProt Q6XUX3)
NTRK2 (human) = NTRK2 (human) (UniProt Q16620)
ULK2 (human) = ULK2 (human) (UniProt Q8IYT8)
LCK (human) = LCK (human) (UniProt P06239)
MAPK9 (human) = MAPK9 (human) (UniProt P45984)
Sequence of MAPK9 (human) (P45984 whole entry, looked up): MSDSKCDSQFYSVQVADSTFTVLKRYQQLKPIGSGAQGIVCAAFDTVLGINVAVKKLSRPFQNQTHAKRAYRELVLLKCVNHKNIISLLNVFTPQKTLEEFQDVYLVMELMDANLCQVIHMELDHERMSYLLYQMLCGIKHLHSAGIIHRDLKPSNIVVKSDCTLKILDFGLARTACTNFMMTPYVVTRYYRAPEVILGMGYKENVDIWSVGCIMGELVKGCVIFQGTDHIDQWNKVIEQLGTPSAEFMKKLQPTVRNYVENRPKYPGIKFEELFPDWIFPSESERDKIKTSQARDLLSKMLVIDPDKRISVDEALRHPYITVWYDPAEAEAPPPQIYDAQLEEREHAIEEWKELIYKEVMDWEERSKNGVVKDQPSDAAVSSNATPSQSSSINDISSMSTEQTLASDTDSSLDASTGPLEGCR

CAMK2G (human) = CAMK2G (human) (UniProt Q13555)
DYRK4 (human) = DYRK4 (human) (UniProt Q9NR20)
MERTK (human) = MERTK (human) (UniProt Q12866)
DAPK3 (human) = DAPK3 (human) (UniProt O43293)
Sequence of DAPK3 (human) (O43293 whole entry, looked up): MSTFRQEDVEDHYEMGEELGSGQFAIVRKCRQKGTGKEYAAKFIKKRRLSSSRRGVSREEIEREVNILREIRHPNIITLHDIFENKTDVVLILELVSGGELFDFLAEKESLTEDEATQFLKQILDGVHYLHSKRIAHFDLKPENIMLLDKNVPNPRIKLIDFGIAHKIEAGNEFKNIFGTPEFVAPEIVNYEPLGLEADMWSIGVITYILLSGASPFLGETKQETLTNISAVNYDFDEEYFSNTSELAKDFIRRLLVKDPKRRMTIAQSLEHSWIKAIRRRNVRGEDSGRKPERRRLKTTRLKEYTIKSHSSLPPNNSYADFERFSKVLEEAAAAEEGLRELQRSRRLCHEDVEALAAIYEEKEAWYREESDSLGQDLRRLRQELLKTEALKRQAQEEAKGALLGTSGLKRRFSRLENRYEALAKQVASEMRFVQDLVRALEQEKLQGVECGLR

CAMK4 (human) = CAMK4 (human) (UniProt Q16566)
NLK (human) = NLK (human) (UniProt Q9UBE8)
CLK4 (human) = CLK4 (human) (UniProt Q9HAZ1)
PRKCG (human) = PRKCG (human) (UniProt P05129)
PRKG2 (human) = PRKG2 (human) (UniProt Q13237)
PRKCD (human) = PRKCD (human) (UniProt Q05655)
MAP4K5 (human) = MAP4K5 (human) (UniProt Q9Y4K4)
EPHB1 (human) = EPHB1 (human) (UniProt P54762)
PAK3 (human) = PAK3 (human) (UniProt O75914)
Sequence of PAK3 (human) (O75914 whole entry, looked up): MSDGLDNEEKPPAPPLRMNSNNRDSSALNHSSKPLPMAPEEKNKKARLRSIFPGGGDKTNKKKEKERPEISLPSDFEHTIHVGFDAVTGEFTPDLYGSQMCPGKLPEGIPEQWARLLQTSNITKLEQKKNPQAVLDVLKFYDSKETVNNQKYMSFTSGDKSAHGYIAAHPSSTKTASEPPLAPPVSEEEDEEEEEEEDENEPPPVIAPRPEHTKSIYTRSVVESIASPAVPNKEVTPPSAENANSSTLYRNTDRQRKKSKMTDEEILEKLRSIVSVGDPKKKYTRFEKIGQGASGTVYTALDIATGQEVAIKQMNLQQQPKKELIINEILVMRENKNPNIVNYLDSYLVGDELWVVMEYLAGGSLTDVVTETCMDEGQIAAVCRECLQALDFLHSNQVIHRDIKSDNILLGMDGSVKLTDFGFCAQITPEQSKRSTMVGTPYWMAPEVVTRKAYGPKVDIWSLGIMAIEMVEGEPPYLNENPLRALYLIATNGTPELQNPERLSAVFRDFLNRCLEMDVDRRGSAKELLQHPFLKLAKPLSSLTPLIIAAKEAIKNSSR

AURKA (human) = AURKA (human) (UniProt O14965)
TEC (human) = TEC (human) (UniProt P42680)
MATK (human) = MATK (human) (UniProt P42679)
Sequence of MATK (human) (P42679 whole entry, looked up): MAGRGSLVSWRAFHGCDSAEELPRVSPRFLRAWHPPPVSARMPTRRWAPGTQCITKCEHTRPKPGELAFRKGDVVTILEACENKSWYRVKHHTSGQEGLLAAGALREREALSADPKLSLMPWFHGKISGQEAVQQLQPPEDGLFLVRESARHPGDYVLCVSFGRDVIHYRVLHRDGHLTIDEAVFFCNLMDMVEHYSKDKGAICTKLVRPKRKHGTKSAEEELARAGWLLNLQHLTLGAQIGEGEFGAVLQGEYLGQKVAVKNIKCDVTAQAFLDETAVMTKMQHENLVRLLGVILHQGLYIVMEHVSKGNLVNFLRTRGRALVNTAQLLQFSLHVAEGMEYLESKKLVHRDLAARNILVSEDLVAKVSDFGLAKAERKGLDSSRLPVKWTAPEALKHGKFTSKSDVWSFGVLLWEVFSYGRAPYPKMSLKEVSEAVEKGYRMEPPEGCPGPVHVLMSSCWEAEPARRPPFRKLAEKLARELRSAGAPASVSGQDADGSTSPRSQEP

CDK1 CCNB1 (human) = CDK1 CCNB1 (human) (UniProt P06493+P14635)
CHEK2 (human) = CHEK2 (human) (UniProt O96017)
Sequence of CHEK2 (human) (O96017 whole entry, looked up): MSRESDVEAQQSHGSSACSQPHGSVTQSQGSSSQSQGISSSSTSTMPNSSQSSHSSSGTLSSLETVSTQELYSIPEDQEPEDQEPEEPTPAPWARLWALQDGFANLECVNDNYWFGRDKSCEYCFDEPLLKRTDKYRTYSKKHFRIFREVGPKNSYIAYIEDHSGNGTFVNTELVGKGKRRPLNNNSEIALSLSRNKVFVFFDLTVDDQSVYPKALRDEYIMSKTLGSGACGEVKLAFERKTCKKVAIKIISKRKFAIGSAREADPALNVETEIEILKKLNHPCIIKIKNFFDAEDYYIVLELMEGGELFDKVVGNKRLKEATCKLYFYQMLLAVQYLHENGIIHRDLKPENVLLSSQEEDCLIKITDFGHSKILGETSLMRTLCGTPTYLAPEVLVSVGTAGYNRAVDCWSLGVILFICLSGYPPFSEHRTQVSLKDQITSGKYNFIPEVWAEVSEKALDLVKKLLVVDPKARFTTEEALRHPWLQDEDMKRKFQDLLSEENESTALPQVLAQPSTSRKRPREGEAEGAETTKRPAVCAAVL

DAPK2 (human) = DAPK2 (human) (UniProt Q9UIK4)
FGFR2 (human) = FGFR2 (human) (UniProt P21802)
Sequence of FGFR2 (human) (P21802 whole entry, looked up): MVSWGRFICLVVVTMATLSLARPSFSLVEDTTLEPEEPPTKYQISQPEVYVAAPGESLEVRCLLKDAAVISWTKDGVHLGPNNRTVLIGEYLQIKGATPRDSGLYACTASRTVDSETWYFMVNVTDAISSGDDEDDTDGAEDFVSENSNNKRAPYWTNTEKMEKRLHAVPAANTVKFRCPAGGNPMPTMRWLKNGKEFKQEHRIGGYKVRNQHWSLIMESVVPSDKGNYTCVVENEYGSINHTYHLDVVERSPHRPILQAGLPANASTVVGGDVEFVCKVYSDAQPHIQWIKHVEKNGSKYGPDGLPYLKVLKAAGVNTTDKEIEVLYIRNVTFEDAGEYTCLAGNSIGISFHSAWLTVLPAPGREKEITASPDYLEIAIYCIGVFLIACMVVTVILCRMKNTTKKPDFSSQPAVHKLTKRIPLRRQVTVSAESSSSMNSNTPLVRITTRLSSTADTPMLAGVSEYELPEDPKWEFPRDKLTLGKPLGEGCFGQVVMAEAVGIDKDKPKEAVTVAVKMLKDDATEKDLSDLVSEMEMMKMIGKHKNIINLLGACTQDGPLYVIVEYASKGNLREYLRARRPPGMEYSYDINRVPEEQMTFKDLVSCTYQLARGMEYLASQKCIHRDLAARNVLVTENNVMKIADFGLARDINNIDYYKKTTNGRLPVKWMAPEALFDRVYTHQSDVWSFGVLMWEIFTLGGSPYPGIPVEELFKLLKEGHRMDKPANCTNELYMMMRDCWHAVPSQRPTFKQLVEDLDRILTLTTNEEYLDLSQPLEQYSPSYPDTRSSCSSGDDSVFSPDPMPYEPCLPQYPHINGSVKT

ULK1 (human) = ULK1 (human) (UniProt O75385)
MAP2K2 (human) = MAP2K2 (human) (UniProt P36507)
JAK3 JH1 JH2 (human) = JAK3 JH1 JH2 (human) (UniProt P52333)
Sequence of JAK3 JH1 JH2 (human) (P52333 whole entry, looked up): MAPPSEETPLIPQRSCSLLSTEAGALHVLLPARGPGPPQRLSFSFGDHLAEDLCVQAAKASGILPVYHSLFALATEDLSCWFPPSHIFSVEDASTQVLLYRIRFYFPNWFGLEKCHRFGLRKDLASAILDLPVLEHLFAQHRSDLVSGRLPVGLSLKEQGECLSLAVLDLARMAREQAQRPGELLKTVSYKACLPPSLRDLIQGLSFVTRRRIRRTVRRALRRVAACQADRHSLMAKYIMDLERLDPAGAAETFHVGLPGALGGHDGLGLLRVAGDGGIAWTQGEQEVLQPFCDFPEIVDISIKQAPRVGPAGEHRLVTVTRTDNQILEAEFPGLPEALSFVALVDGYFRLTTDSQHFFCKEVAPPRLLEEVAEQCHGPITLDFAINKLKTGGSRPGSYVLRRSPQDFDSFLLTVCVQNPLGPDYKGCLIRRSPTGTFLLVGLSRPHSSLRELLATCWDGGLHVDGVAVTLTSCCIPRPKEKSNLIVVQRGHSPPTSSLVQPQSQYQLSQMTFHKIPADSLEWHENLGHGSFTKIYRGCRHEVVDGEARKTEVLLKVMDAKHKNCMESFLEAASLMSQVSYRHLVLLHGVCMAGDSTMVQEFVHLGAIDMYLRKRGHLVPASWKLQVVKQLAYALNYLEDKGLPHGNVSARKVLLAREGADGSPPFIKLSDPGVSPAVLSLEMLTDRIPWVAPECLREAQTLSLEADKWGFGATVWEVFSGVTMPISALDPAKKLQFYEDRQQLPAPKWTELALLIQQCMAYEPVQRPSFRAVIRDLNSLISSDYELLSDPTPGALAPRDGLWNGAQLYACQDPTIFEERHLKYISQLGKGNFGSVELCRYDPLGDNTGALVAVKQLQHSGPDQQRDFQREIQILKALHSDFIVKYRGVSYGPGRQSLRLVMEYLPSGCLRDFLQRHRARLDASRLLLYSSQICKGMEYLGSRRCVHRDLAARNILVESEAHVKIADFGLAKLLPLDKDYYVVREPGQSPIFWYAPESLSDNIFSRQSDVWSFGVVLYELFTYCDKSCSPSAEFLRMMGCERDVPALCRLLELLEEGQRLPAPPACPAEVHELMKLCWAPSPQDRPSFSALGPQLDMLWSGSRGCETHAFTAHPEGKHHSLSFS

PAK2 (human) = PAK2 (human) (UniProt Q13177)
MARK3 (human) = MARK3 (human) (UniProt P27448)
ROCK2 (human) = ROCK2 (human) (UniProt O75116)

Sequence of GRK5 (human) (P34947 whole entry, looked up): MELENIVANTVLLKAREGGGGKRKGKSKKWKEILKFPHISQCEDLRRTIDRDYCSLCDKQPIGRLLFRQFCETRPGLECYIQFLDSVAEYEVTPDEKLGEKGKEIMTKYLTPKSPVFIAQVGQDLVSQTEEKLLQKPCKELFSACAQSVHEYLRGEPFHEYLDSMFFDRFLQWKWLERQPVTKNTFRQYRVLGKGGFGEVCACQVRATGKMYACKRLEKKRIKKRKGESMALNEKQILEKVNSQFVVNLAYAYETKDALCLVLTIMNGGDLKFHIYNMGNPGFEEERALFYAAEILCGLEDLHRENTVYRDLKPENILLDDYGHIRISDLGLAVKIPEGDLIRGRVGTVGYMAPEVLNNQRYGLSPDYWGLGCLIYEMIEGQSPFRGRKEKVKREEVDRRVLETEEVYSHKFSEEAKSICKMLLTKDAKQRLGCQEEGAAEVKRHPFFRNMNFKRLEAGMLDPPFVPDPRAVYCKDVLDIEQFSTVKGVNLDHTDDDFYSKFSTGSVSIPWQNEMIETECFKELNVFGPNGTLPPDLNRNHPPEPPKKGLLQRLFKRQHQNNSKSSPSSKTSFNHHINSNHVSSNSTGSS

O=S(=O)(c1cccc2cnccc12)N1CCCNCC1
residual activity (BRSK2 (human)): 91.7% | residual activity (ACVR1 (human)): 96.5% | residual activity (STK33 (human)): 90.3% | residual activity (FLT3 (human)): 103% | residual activity (GRK5 (human)): 109% | residual activity (PLK2 (human)): 100% | residual activity (EPHA3 (human)): 105% | residual activity (BMX (human)): 104% | residual activity (EPHA2 (human)): 102% | residual activity (BLK (human)): 85.3% | residual activity (FLT1 (human)): 90% | residual activity (DSTYK (human)): 90.4% | residual activity (NTRK2 (human)): 102% | residual activity (ULK2 (human)): 101% | residual activity (LCK (human)): 101% | residual activity (MAPK9 (human)): 87% | residual activity (CAMK2G (human)): 93.1% | residual activity (DYRK4 (human)): 97.9% | residual activity (MERTK (human)): 88.3% | residual activity (DAPK3 (human)): 93% | residual activity (CAMK4 (human)): 92.9% | residual activity (NLK (human)): 97.3% | residual activity (CLK4 (human)): 97.1% | residual activity (PRKCG (human)): 110% | residual activity (PRKG2 (human)): 98.9% | residual activity (PRKCD (human)): 84.7% | residual activity (MAP4K5 (human)): 36.3% | residual activity (EPHB1 (human)): 106% | residual activity (PAK3 (human)): 103% | residual activity (AURKA (human)): 101% | residual activity (TEC (human)): 109% | residual activity (MATK (human)): 99.6% | residual activity (CDK1 CCNB1 (human)): 92.7% | residual activity (CHEK2 (human)): 98.9% | residual activity (DAPK2 (human)): 83.6% | residual activity (FGFR2 (human)): 97.6% | residual activity (ULK1 (human)): 103% | residual activity (MAP2K2 (human)): 117% | residual activity (JAK3 JH1 JH2 (human)): 120%

Cc1ccc(NC2=CC(=O)c3sc(C)nc3C2=O)cc1
residual activity (PAK2 (human)): 104% | residual activity (BRSK2 (human)): 93.1% | residual activity (ACVR1 (human)): 99.1% | residual activity (STK33 (human)): 96.6% | residual activity (FLT3 (human)): 72.5% | residual activity (GRK5 (human)): 106% | residual activity (PLK2 (human)): 95.1% | residual activity (EPHA3 (human)): 96.6% | residual activity (BMX (human)): 100% | residual activity (EPHA2 (human)): 102% | residual activity (MARK3 (human)): 95.1% | residual activity (BLK (human)): 95.4% | residual activity (FLT1 (human)): 89.8% | residual activity (DSTYK (human)): 76.1% | residual activity (NTRK2 (human)): 100% | residual activity (ULK2 (human)): 96.9% | residual activity (LCK (human)): 94.2% | residual activity (MAPK9 (human)): 96.5% | residual activity (CAMK2G (human)): 90.4% | residual activity (DYRK4 (human)): 97.9% | residual activity (MERTK (human)): 80.5% | residual activity (DAPK3 (human)): 104% | residual activity (CAMK4 (human)): 98.5% | residual activity (NLK (human)): 107% | residual activity (CLK4 (human)): 99.1% | residual activity (PRKCG (human)): 77% | residual activity (PRKG2 (human)): 60.8% | residual activity (ROCK2 (human)): 85.1% | residual activity (PRKCD (human)): 104% | residual activity (MAP4K5 (human)): 96.9% | residual activity (PAK3 (human)): 97.5% | residual activity (AURKA (human)): 110% | residual activity (TEC (human)): 117% | residual activity (MATK (human)): 88.3% | residual activity (CDK1 CCNB1 (human)): 69.7% | residual activity (CHEK2 (human)): 100% | residual activity (DAPK2 (human)): 91.9% | residual activity (FGFR2 (human)): 91% | residual activity (ULK1 (human)): 114% | residual activity (MAP2K2 (human)): 98.8% | residual activity (JAK3 JH1 JH2 (human)): 97.4%

CCN(CC)C(=O)c1ccc(Nc2nc(OCC3CCCCC3)c3nc[nH]c3n2)cc1
residual activity (BRSK2 (human)): 82.5% | residual activity (ACVR1 (human)): 98.8% | residual activity (STK33 (human)): 67.2% | residual activity (FLT3 (human)): 10.3% | residual activity (GRK5 (human)): 98.8% | residual activity (PLK2 (human)): 98.2% | residual activity (EPHA3 (human)): 99.9% | residual activity (BMX (human)): 42.9% | residual activity (EPHA2 (human)): 90.6% | residual activity (MARK3 (human)): 85.4% | residual activity (BLK (human)): 60.9% | residual activity (FLT1 (human)): 84% | residual activity (DSTYK (human)): 106% | residual activity (NTRK2 (human)): 54.3% | residual activity (ULK2 (human)): 84.9% | residual activity (LCK (human)): 39.8% | residual activity (MAPK9 (human)): 60.8% | residual activity (CAMK2G (human)): 95.2% | residual activity (DYRK4 (human)): 93.6% | residual activity (MERTK (human)): 71.6% | residual activity (DAPK3 (human)): 98.4% | residual activity (CAMK4 (human)): 97.7% | residual activity (NLK (human)): 94.5% | residual activity (CLK4 (human)): 44.2% | residual activity (PRKCG (human)): 94.5% | residual activity (PRKG2 (human)): 80% | residual activity (ROCK2 (human)): 39.8% | residual activity (PRKCD (human)): 76.7% | residual activity (MAP4K5 (human)): 78% | residual activity (EPHB1 (human)): 75.4% | residual activity (PAK3 (human)): 87.7% | residual activity (AURKA (human)): 3.03% | residual activity (TEC (human)): 63% | residual activity (MATK (human)): 95.6% | residual activity (CDK1 CCNB1 (human)): 62.4% | residual activity (CHEK2 (human)): 71.3% | residual activity (DAPK2 (human)): 91.7% | residual activity (FGFR2 (human)): 76.6% | residual activity (ULK1 (human)): 77.7% | residual activity (MAP2K2 (human)): 94% | residual activity (JAK3 JH1 JH2 (human)): 6.39%

Nc1ncnc2[nH]nc(Nc3ccc(F)cc3)c12
residual activity (PAK2 (human)): 103% | residual activity (BRSK2 (human)): 60.6% | residual activity (ACVR1 (human)): 127% | residual activity (STK33 (human)): 94.3% | residual activity (FLT3 (human)): 78.3% | residual activity (GRK5 (human)): 97.1% | residual activity (PLK2 (human)): 101% | residual activity (EPHA3 (human)): 107% | residual activity (BMX (human)): 89.6% | residual activity (EPHA2 (human)): 89.9% | residual activity (MARK3 (human)): 92.5% | residual activity (BLK (human)): 101% | residual activity (FLT1 (human)): 87.3% | residual activity (DSTYK (human)): 109% | residual activity (NTRK2 (human)): 101% | residual activity (ULK2 (human)): 110% | residual activity (LCK (human)): 98.3% | residual activity (MAPK9 (human)): 103% | residual activity (CAMK2G (human)): 119% | residual activity (DYRK4 (human)): 104% | residual activity (MERTK (human)): 90.7% | residual activity (DAPK3 (human)): 124% | residual activity (CAMK4 (human)): 103% | residual activity (NLK (human)): 95.4% | residual activity (CLK4 (human)): 88.7% | residual activity (PRKCG (human)): 96% | residual activity (PRKG2 (human)): 97% | residual activity (ROCK2 (human)): 92.1% | residual activity (PRKCD (human)): 112% | residual activity (MAP4K5 (human)): 52% | residual activity (PAK3 (human)): 104% | residual activity (AURKA (human)): 92.3% | residual activity (TEC (human)): 86% | residual activity (MATK (human)): 95.6% | residual activity (CDK1 CCNB1 (human)): 90.7% | residual activity (CHEK2 (human)): 98.6% | residual activity (DAPK2 (human)): 85.5% | residual activity (FGFR2 (human)): 97.2% | residual activity (ULK1 (human)): 95.6% | residual activity (MAP2K2 (human)): 90% | residual activity (JAK3 JH1 JH2 (human)): 102%

Oc1cccc(-c2nc(N3CCOCC3)c3oc4ncccc4c3n2)c1
residual activity (PAK2 (human)): 97.5% | residual activity (BRSK2 (human)): 97.1% | residual activity (ACVR1 (human)): 105% | residual activity (FLT3 (human)): 87.1% | residual activity (PLK2 (human)): 94.7% | residual activity (EPHA3 (human)): 93.7% | residual activity (BMX (human)): 101% | residual activity (EPHA2 (human)): 99.9% | residual activity (MARK3 (human)): 97.4% | residual activity (BLK (human)): 101% | residual activity (FLT1 (human)): 83.6% | residual activity (DSTYK (human)): 96.1% | residual activity (NTRK2 (human)): 90.2% | residual activity (ULK2 (human)): 106% | residual activity (LCK (human)): 98% | residual activity (MAPK9 (human)): 89.4% | residual activity (CAMK2G (human)): 100% | residual activity (DYRK4 (human)): 96.6% | residual activity (MERTK (human)): 87.8% | residual activity (DAPK3 (human)): 93.1% | residual activity (CAMK4 (human)): 103% | residual activity (NLK (human)): 97.4% | residual activity (CLK4 (human)): 81.5% | residual activity (PRKCG (human)): 102% | residual activity (PRKG2 (human)): 89.2% | residual activity (ROCK2 (human)): 94.5% | residual activity (PRKCD (human)): 96% | residual activity (MAP4K5 (human)): 82.4% | residual activity (EPHB1 (human)): 89.6% | residual activity (PAK3 (human)): 97.5% | residual activity (AURKA (human)): 91.9% | residual activity (TEC (human)): 113% | residual activity (MATK (human)): 86.7% | residual activity (CDK1 CCNB1 (human)): 108% | residual activity (CHEK2 (human)): 90.4% | residual activity (DAPK2 (human)): 117% | residual activity (FGFR2 (human)): 95.7% | residual activity (ULK1 (human)): 113% | residual activity (MAP2K2 (human)): 85% | residual activity (JAK3 JH1 JH2 (human)): 99%
